Data on two compounds can be found in patent publication US11000033B2, “Ketone or oxime compound, and herbicide” (NISSAN CHEMICAL CORPORATION, priority 2014, dated 2021).

Molecules are shown by their SMILES.

Holding throughout (assay type): in vivo
One series relates to transplanted rice plant. Description: Test Example 1: effect on crop, application before weed generation in submerged conditions (symbol a). The settings on record: application herbicide amount 320 g/ha. The gist of the method:
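Rice at 2.5 leaf stage transplanted into submerged soil (4 cm depth) sown with three weed species; herbicide applied before weed emergence.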

Series [1] relates to Echinochloa crus-galli var. crus-galli. Nature of the series: Test Example 3: herbicidal effect by foliage application, Wagner pot (symbol H). Conditions: application herbicide amount 320 g/ha. The gist of the method: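 Alluvial soil was flooded to a depth of 0.1–0.5 cm, seeded with the weeds and rice, and kept in a greenhouse at 25–30 °C. After 14 days of growth, the foliage received a small-sprayer application of emulsion diluted to the intended rate; injury was rated at 3 weeks.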

A further series deals with Veronica persica. Description: Test Example 4: herbicidal effect by soil treatment (symbol R). Conditions: application herbicide amount 320 g/ha. In a few lines: (§1)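 Seeds were sown in sterilized diluvial soil, covered with about 1.5 cm of soil, and the soil surface was sprayed with a water-diluted emulsion of the compound at a predetermined rate. Plants grew in a greenhouse at 25° C. to 30° C.; effects were scored visually 3 weeks after application.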

The test system of another series is beet. Description: Test Example 5: effect on crop by foliage application, plastic box (symbol f). Conditions: 320 g/ha, 3 weeks after application. In a few lines:
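Crop seed is sown alongside grass and broadleaf weed species in spots in sterilized diluvial soil, then covered to a depth of about 1.5 cm. Plants grow in a greenhouse kept at 25° C. to 30° C.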

The test system of series [2] is Chenopodium album. Description: Test Example 5: herbicidal effect by foliage application, plastic box (symbol O). The settings on record: 320 g/ha, 3 weeks after application. In a few lines: (§2)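 Emulsion formulation, diluted with water to the intended rate, was applied uniformly to leaves by small sprayer. Recipients were 14-day greenhouse-grown seedlings (25° C. to 30° C.). Assessment followed at 3 weeks.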

Another series deals with Setaria viridis. Description: Test Example 4: herbicidal effect by soil treatment (symbol G). Conditions: application herbicide amount 320 g/ha. The gist of the method: as §1
The subject of the next series is Amaranthus retroflexus. Description: Test Example 4: herbicidal effect by soil treatment (symbol N). Conditions: application herbicide amount 320 g/ha. In a few lines:
as §1

For another series, the system named is Alopecurus myosuroides. Nature of the series: Test Example 5: herbicidal effect by foliage application, plastic box (symbol J). Conditions: 320 g/ha, 3 weeks after application. The gist of the method: as §2
Series [3] has as its system Lolium multiflorum Lam. Description: Test Example 5: herbicidal effect by foliage application, plastic box (symbol K). Conditions: 320 g/ha, 3 weeks after application. In a few lines: as §2
Series [4] relates to Digitaria ciliaris. Description: Test Example 4: herbicidal effect by soil treatment (symbol F). Conditions: application herbicide amount 320 g/ha. In a few lines:
as §1

The test system of a further series is Galium spurium. Nature of the series: Test Example 4: herbicidal effect by soil treatment (symbol Q). Conditions: application herbicide amount 320 g/ha. In a few lines: as §1
The subject of series [5] is directly sowed rice plant. Nature of the series: Test Example 3: effect on crop by foliage application, Wagner pot (symbol b). The settings on record: application herbicide amount 320 g/ha. The gist of the method:
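Steps: fill a 1/10000-are Wagner pot with alluvial soil; add water and mix to submerge at 0.1–0.5 cm depth; sow rice plus Echinochloa crus-galli var. crus-galli, Leptochloa chinensis and Cyperus difformis; grow in a 25–30 °C greenhouse.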

A further series relates to Stellaria media. Nature of the series: Test Example 5: herbicidal effect by foliage application, plastic box (symbol P). Conditions: 320 g/ha, 3 weeks after application. In a few lines:
as §2

Another series has as its system wheat. Description: Test Example 4: effect on crop by soil treatment (symbol e). Conditions: application herbicide amount 320 g/ha. The gist of the method: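 Soil-treatment setup: crop and weed seeds were spot-sown into sterilized diluvial soil, then buried beneath approximately 1.5 cm of it, and the boxes were housed in a 25–30° C. greenhouse.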
A further series relates to Abutilon theophrasti. Nature of the series: Test Example 5: herbicidal effect by foliage application, plastic box (symbol M). The settings on record: 320 g/ha, 3 weeks after application. The gist of the method:
as §2

Series [6] deals with Chenopodium album. Nature of the series: Test Example 4: herbicidal effect by soil treatment (symbol O). The settings on record: application herbicide amount 320 g/ha. In a few lines: as §1
For series [7], the system named is Digitaria ciliaris. Description: Test Example 5: herbicidal effect by foliage application, plastic box (symbol F). Conditions: 320 g/ha, 3 weeks after application. The gist of the method: as §2
The test system of series [8] is Lolium multiflorum Lam. Nature of the series: Test Example 4: herbicidal effect by soil treatment (symbol K). The settings on record: application herbicide amount 320 g/ha. The gist of the method:
as §1

`CON=C(C)CC1CC(O)=C(c2c(OC)cc(C)cc2OC)C1=O` (stereo not drawn) [6-103]: in the series with transplanted rice plant, the “Effect grade on crop, a: transplanted rice plant” value is 5 (Herbicidal ratio of 90% or more (almost completely withered)). The “herbicidal effect on H (Echinochloa crus-galli var. crus-galli), grade 0-5” value in series [1] is 5 (Herbicidal ratio of 90% or more (almost completely withered)). Also, the “Herbicidal effect grade, R: Veronica persica” value with Veronica persica is 0 (Herbicidal ratio of 5% or lower (almost no effect)). In addition, the “f: beet, effect on crop (criteria of Test Example 1)” value in the series on beet is 0 (Herbicidal ratio of 5% or lower (almost no effect)). The “O: Chenopodium album, herbicidal effect (criteria of Test Example 1)” value in the series on Chenopodium album [2] is given as 0 (Herbicidal ratio of 5% or lower (almost no effect)). The “Herbicidal effect grade, G: Setaria viridis” value in the series on Setaria viridis was 5 (Herbicidal ratio of 90% or more (almost completely withered)). The “Herbicidal effect grade, N: Amaranthus retroflexus” value with Amaranthus retroflexus is on record as 0 (Herbicidal ratio of 5% or lower (almost no effect)). The “J: Alopecurus myosuroides, herbicidal effect (criteria of Test Example 1)” value in the series on Alopecurus myosuroides is 5 (Herbicidal ratio of 90% or more (almost completely withered)). For the same compound, the “K: Lolium multiflorum Lam., herbicidal effect (criteria of Test Example 1)” value in the series on Lolium multiflorum Lam. [3] is recorded as 5 (Herbicidal ratio of 90% or more (almost completely withered)). Further, the “Herbicidal effect grade, F: Digitaria ciliaris” value in the series with Digitaria ciliaris [4] was 5 (Herbicidal ratio of 90% or more (almost completely withered)). Also, the “Herbicidal effect grade, Q: Galium spurium” value in the series on Galium spurium is 0 (Herbicidal ratio of 5% or lower (almost no effect)). For the same compound, the “effect on crop b (directly sowed rice plant), grade 0-5” value in [5] was 5 (Herbicidal ratio of 90% or more (almost completely withered)). The “P: Stellaria media, herbicidal effect (criteria of Test Example 1)” value in the series on Stellaria media was 1 (Herbicidal ratio of 5% or higher and lower than 20%). Besides, the “Effect on crop grade, e: wheat” value in the series with wheat was 5 (Herbicidal ratio of 90% or more (almost completely withered)). Besides, in the series on Abutilon theophrasti, the “M: Abutilon theophrasti, herbicidal effect (criteria of Test Example 1)” value is 2 (Herbicidal ratio of 20% or higher and lower than 40%). The “Herbicidal effect grade, O: Chenopodium album” value in the series on Chenopodium album [6] is 0 (Herbicidal ratio of 5% or lower (almost no effect)). The “F: Digitaria ciliaris, herbicidal effect (criteria of Test Example 1)” value in the series on Digitaria ciliaris [7] is recorded as 5 (Herbicidal ratio of 90% or more (almost completely withered)). Moreover, the “Herbicidal effect grade, K: Lolium multiflorum Lam.” value in the series with Lolium multiflorum Lam. [8] is given as 5 (Herbicidal ratio of 90% or more (almost completely withered)).
On to `CON=C(C)CC1CC(O)=C(c2c(C)cc(-n3cncn3)cc2C)C1=O` (stereo not drawn) [6-074], for which the “Effect grade on crop, a: transplanted rice plant” value in the series with transplanted rice plant was 2 (Herbicidal ratio of 20% or higher and lower than 40%). Also, the “herbicidal effect on H (Echinochloa crus-galli var. crus-galli), grade 0-5” value in [1] is 4 (Herbicidal ratio of 70% or higher and lower than 90%). The “R: Veronica persica, herbicidal effect grade” value in the series on Veronica persica is given as 0 (Herbicidal ratio of 5% or lower (almost no effect)). In the series on beet, the “f: beet, effect on crop (criteria of Test Example 1)” value is reported as 0 (Herbicidal ratio of 5% or lower (almost no effect)). For the same compound, the “O: Chenopodium album, herbicidal effect (criteria of Test Example 1)” value in the series on Chenopodium album [2] is recorded as 0 (Herbicidal ratio of 5% or lower (almost no effect)). In addition, the “G: Setaria viridis, herbicidal effect grade” value in the series on Setaria viridis was 2 (Herbicidal ratio of 20% or higher and lower than 40%). For the same compound, the “N: Amaranthus retroflexus, herbicidal effect grade” value in the series with Amaranthus retroflexus is given as 0 (Herbicidal ratio of 5% or lower (almost no effect)). Moreover, in the series on Alopecurus myosuroides, the “J: Alopecurus myosuroides, herbicidal effect (criteria of Test Example 1)” value is given as 0 (Herbicidal ratio of 5% or lower (almost no effect)). Also, the “K: Lolium multiflorum Lam., herbicidal effect (criteria of Test Example 1)” value with Lolium multiflorum Lam. [3] is 2 (Herbicidal ratio of 20% or higher and lower than 40%). Moreover, the “F: Digitaria ciliaris, herbicidal effect grade” value in the series on Digitaria ciliaris [4] is on record as 0 (Herbicidal ratio of 5% or lower (almost no effect)). In addition, the “Q: Galium spurium, herbicidal effect grade” value in the series with Galium spurium was 0 (Herbicidal ratio of 5% or lower (almost no effect)). Moreover, in series [5], the “effect on crop b (directly sowed rice plant), grade 0-5” value is 1 (Herbicidal ratio of 5% or higher and lower than 20%). In the series on Stellaria media, the “P: Stellaria media, herbicidal effect (criteria of Test Example 1)” value is listed as 0 (Herbicidal ratio of 5% or lower (almost no effect)). In addition, the “e: wheat, effect on crop grade” value in the series with wheat is given as 0 (Herbicidal ratio of 5% or lower (almost no effect)). Also, in the series on Abutilon theophrasti, the “M: Abutilon theophrasti, herbicidal effect (criteria of Test Example 1)” value is listed as 0 (Herbicidal ratio of 5% or lower (almost no effect)). Also, the “O: Chenopodium album, herbicidal effect grade” value in the series with Chenopodium album [6] is 0 (Herbicidal ratio of 5% or lower (almost no effect)). In addition, the “F: Digitaria ciliaris, herbicidal effect (criteria of Test Example 1)” value with Digitaria ciliaris [7] was 0 (Herbicidal ratio of 5% or lower (almost no effect)). Further, the “K: Lolium multiflorum Lam., herbicidal effect grade” value with Lolium multiflorum Lam. [8] was 0 (Herbicidal ratio of 5% or lower (almost no effect)).
